{
  "source": "ChEMBL document CHEMBL4270552",
  "about": "“4-(Phenoxy) and 4-(benzyloxy)benzamides as potent and selective inhibitors of mono-ADP-ribosyltransferase PARP10/ARTD10” (Eur J Med Chem, 2018)",
  "data": [
    {"biological_target": "T1, Protein mono-ADP-ribosyltransferase PARP3 (Homo sapiens, UniProt Q9Y6F1)", "T1 sequence (Q9Y6F1 whole entry)": "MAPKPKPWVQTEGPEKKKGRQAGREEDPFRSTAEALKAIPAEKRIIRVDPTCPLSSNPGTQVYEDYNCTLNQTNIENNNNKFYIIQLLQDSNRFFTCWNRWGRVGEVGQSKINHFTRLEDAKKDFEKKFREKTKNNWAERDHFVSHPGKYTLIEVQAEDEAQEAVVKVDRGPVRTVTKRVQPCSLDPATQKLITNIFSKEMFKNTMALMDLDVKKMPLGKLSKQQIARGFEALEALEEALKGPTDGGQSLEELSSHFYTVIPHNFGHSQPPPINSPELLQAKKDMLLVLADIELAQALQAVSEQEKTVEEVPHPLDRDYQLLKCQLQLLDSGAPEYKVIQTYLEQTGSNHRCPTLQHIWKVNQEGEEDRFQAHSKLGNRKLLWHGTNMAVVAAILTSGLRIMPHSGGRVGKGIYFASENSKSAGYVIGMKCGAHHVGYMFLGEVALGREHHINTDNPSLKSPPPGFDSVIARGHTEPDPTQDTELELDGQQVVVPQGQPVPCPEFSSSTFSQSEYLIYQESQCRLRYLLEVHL", "assay": "Inhibition of N-terminal His-tagged thioredoxin-fused human ARTD3 (1 to 533 residues) expressed in Escherichia coli Rosetta2 (DE3) using DNA as substrate after 3 hrs in presence of NAD+", "units": {"IC50": "µM"}, "values": [
      {"smiles": "NC(=O)c1ccc(Oc2ccc(C(=O)O)cc2)cc1", "IC50": "> 100"},
      {"smiles": "COc1ccc(C(N)=O)cc1", "IC50": "> 100"},
      {"smiles": "NC(=O)c1ccc(Oc2ccc(C=O)cc2)cc1", "IC50": 86},
      {"smiles": "NC(=O)c1ccc(OCc2ccccc2F)cc1", "IC50": "> 100"}
    ]},
    {"biological_target": "Protein mono-ADP-ribosyltransferase PARP14 (Homo sapiens, UniProt Q460N5)", "sequence (Q460N5 whole entry, the tested form may be a part)": "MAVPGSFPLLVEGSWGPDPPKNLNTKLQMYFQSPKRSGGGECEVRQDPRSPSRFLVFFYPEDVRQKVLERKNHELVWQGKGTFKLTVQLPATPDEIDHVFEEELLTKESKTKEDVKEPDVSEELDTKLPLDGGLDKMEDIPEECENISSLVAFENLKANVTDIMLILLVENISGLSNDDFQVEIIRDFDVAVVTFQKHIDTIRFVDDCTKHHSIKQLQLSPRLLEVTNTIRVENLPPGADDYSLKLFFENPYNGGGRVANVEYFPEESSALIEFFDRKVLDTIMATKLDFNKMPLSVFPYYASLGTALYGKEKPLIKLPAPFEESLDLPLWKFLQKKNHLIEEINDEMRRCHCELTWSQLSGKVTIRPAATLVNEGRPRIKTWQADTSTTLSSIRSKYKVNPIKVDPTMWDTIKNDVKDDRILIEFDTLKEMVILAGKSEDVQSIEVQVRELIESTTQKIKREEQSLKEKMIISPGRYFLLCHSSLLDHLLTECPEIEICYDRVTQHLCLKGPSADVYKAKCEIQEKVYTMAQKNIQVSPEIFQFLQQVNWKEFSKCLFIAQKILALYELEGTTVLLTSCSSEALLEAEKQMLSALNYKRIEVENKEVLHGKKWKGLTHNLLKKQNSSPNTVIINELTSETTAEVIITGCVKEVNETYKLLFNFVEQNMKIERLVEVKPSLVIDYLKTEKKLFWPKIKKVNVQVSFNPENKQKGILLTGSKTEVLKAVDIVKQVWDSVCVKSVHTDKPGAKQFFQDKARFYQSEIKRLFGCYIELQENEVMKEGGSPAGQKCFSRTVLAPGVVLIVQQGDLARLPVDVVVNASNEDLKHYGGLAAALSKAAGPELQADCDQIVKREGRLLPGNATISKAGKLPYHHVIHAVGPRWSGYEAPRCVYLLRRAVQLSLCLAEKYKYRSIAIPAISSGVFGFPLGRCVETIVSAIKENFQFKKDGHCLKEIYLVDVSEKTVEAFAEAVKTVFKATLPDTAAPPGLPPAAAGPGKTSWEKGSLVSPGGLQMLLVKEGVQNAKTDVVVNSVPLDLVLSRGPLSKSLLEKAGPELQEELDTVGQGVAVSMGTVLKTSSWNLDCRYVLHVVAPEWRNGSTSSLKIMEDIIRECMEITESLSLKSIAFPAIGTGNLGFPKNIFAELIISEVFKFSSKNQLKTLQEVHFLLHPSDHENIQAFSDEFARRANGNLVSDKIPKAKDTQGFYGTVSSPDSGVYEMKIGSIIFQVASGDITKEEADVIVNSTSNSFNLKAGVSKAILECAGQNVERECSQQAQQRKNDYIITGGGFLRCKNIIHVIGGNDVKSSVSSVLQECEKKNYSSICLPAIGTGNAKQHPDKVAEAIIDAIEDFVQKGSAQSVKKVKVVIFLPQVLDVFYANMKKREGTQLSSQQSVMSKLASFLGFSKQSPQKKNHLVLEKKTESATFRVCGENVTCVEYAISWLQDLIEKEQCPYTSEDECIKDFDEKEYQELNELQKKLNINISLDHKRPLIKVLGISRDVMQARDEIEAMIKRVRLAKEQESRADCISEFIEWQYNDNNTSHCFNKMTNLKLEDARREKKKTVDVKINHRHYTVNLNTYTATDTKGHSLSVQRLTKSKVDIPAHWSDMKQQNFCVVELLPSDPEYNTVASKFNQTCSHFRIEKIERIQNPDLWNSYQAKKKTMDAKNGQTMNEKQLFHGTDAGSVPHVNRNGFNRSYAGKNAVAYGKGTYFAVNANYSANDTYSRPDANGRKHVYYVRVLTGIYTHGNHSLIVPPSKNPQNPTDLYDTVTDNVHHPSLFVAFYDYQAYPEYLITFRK", "assay": "Inhibition of N-terminal His-tagged thioredoxin-fused human ARTD8 (1535 to 1801 residues) expressed in Escherichia coli Rosetta2 (DE3) after 21 hrs in presence of NAD+", "units": {"IC50": "µM"}, "values": [
      {"smiles": "NC(=O)c1ccc(Oc2ccc(C(=O)O)cc2)cc1", "IC50": "> 10"},
      {"smiles": "COc1ccc(C(N)=O)cc1", "IC50": "> 10"},
      {"smiles": "NC(=O)c1ccc(Oc2ccc(C=O)cc2)cc1", "IC50": "> 10"},
      {"smiles": "NC(=O)c1ccc(OCc2ccccc2F)cc1", "IC50": 10}
    ]},
    {"biological_target": "T2, Poly [ADP-ribose] polymerase tankyrase-2 (Homo sapiens, UniProt Q9H2K2)", "T2 sequence (Q9H2K2 whole entry)": "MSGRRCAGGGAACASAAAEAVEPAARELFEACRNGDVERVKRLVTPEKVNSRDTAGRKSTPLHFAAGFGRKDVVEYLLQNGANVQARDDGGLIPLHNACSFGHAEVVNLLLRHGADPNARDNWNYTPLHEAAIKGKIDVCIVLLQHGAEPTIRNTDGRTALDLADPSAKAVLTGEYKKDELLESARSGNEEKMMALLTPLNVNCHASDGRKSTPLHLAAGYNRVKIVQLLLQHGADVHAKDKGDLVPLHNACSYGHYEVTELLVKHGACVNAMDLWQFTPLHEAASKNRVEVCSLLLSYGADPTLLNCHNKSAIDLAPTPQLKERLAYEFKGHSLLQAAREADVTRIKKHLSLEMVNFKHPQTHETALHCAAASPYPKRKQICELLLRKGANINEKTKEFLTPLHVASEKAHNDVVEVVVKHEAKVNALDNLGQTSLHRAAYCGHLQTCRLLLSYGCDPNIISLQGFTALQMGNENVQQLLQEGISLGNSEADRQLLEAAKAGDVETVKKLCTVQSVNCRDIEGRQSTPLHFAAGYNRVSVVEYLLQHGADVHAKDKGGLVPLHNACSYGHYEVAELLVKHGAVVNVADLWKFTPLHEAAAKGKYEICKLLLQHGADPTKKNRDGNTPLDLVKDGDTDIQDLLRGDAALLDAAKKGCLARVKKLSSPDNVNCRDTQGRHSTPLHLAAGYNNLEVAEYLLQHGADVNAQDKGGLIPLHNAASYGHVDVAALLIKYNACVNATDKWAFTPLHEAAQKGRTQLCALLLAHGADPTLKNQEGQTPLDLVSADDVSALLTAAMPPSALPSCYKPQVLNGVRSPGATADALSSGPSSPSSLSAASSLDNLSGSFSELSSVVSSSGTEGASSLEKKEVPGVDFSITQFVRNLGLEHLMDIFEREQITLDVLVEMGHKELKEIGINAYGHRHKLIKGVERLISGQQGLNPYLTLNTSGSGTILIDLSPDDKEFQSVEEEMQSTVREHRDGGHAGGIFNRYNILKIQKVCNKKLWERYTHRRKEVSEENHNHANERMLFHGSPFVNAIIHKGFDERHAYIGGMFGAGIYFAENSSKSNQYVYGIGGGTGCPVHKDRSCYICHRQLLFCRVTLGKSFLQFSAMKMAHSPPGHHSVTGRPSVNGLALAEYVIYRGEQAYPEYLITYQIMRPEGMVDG", "assay": "Inhibition of N-terminal His-tagged Z-basic-fused human ARTD6 (873 to 1161 residues) expressed in Escherichia coli Rosetta2 (DE3) using TCEP as substrate after 18 hrs in presence of NAD+", "units": {"IC50": "µM"}, "values": [
      {"smiles": "NC(=O)c1ccc(Oc2ccc(C(=O)O)cc2)cc1", "IC50": "> 100"},
      {"smiles": "COc1ccc(C(N)=O)cc1", "IC50": "> 100"},
      {"smiles": "NC(=O)c1ccc(Oc2ccc(C=O)cc2)cc1", "IC50": "> 100"},
      {"smiles": "NC(=O)c1ccc(OCc2ccccc2F)cc1", "IC50": "> 100"}
    ]},
    {"biological_target": "Protein mono-ADP-ribosyltransferase PARP4 (Homo sapiens, UniProt Q9UKK3)", "sequence (Q9UKK3 whole entry, the tested form may be a part)": "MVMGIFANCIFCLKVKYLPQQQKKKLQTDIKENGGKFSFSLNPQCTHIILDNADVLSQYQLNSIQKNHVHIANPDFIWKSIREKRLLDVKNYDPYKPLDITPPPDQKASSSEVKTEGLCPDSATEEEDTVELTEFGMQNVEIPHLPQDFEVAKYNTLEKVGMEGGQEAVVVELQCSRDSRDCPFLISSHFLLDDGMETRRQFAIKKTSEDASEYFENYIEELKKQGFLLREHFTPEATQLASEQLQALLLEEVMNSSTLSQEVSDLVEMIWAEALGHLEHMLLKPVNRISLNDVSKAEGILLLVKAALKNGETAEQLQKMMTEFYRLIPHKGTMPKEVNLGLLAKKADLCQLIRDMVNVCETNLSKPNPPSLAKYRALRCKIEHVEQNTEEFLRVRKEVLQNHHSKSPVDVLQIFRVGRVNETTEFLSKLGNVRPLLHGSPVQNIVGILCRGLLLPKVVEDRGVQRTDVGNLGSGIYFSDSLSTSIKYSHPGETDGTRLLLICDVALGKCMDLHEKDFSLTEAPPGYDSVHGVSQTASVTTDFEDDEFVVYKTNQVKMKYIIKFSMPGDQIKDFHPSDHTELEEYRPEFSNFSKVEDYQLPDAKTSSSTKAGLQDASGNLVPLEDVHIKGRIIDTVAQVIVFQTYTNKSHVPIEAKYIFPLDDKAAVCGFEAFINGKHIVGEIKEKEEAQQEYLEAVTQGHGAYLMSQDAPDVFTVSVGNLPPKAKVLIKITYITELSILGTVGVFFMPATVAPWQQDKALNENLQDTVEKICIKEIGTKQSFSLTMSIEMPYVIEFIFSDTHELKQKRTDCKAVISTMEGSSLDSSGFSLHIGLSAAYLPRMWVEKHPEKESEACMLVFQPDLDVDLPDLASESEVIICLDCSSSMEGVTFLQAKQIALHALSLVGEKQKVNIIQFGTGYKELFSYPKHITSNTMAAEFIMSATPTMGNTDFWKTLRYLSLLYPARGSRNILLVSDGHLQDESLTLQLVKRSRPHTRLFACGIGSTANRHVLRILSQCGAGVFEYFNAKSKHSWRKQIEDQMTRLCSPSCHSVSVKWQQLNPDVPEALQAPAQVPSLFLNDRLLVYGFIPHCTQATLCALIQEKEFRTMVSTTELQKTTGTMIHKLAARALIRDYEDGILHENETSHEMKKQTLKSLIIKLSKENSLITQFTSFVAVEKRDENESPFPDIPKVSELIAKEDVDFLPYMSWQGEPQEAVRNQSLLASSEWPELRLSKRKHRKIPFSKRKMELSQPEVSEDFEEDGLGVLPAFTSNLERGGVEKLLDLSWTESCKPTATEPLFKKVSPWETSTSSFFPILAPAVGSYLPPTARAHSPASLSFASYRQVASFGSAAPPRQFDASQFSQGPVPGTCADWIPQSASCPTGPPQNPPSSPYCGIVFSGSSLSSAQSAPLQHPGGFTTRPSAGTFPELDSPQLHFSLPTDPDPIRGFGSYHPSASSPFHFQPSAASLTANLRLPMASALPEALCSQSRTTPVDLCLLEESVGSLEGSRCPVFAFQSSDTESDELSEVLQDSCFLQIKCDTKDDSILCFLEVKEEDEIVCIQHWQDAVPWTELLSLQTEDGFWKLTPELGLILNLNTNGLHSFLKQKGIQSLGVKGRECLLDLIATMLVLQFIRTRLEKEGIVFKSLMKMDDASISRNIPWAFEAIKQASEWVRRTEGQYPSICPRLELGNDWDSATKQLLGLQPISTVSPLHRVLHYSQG", "assay": "Inhibition of N-terminal His-tagged human ARTD4 (250 to 565 residues) expressed in Escherichia coli Rosetta2 (DE3) using TCEP as substrate after 2.5 hrs in presence of NAD+", "units": {"IC50": "µM"}, "values": [
      {"smiles": "NC(=O)c1ccc(Oc2ccc(C(=O)O)cc2)cc1", "IC50": "> 100"},
      {"smiles": "COc1ccc(C(N)=O)cc1", "IC50": 65},
      {"smiles": "NC(=O)c1ccc(Oc2ccc(C=O)cc2)cc1", "IC50": "> 100"},
      {"smiles": "NC(=O)c1ccc(OCc2ccccc2F)cc1", "IC50": "> 100"}
    ]},
    {"biological_target": "Protein mono-ADP-ribosyltransferase PARP9 (Homo sapiens) (UniProt Q8IXQ6)", "units": {"ΔTm": "°C"}, "description": "Stabilization of human ARTD9 expressed in Escherichia coli assessed as change in melting temperature at 100 uM by SYPRO Orange-dye based differential scanning fluorimetric method", "values": [
      {"smiles": "NC(=O)c1ccc(Oc2ccc(C(=O)O)cc2)cc1", "ΔTm": 1.2},
      {"smiles": "COc1ccc(C(N)=O)cc1", "ΔTm": 0.15},
      {"smiles": "NC(=O)c1ccc(Oc2ccc(C=O)cc2)cc1", "ΔTm": 0.04},
      {"smiles": "NC(=O)c1ccc(OCc2ccccc2F)cc1", "ΔTm": 0.76}
    ]},
    {"biological_target": "T3, Protein mono-ADP-ribosyltransferase PARP15 (Homo sapiens, UniProt Q460N3)", "T3 sequence (Q460N3 whole entry)": "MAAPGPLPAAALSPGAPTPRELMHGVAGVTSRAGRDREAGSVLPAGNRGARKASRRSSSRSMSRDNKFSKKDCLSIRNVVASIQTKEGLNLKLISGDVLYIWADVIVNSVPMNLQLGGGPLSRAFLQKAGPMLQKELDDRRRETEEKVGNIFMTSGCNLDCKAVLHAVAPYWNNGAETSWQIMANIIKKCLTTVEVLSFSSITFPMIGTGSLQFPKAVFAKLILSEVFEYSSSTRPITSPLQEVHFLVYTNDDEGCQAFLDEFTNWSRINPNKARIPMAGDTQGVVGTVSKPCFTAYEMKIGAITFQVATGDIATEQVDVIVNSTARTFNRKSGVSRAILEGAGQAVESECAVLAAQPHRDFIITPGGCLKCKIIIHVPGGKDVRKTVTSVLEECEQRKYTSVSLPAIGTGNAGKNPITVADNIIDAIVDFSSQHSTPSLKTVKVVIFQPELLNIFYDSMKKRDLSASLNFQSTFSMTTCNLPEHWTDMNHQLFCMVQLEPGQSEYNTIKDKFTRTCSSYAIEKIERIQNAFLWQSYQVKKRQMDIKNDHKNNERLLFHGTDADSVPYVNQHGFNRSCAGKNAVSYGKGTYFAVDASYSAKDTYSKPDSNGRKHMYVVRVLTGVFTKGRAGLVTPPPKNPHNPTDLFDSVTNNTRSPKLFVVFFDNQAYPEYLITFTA", "assay": "Inhibition of N-terminal His-tagged human ARTD7 (482 to 678 residues) expressed in Escherichia coli Rosetta2 (DE3) using SRPK2 as substrate after 3 hrs in presence of NAD+", "units": {"IC50": "µM"}, "values": [
      {"smiles": "NC(=O)c1ccc(Oc2ccc(C(=O)O)cc2)cc1", "IC50": 2.6},
      {"smiles": "COc1ccc(C(N)=O)cc1", "IC50": "> 10"},
      {"smiles": "NC(=O)c1ccc(Oc2ccc(C=O)cc2)cc1", "IC50": "> 10"},
      {"smiles": "NC(=O)c1ccc(OCc2ccccc2F)cc1", "IC50": 3.3}
    ]}
  ]
}
